Four molecules from ChEMBL document CHEMBL1154159, “Didanosine ester prodrugs: synthesis, albumin binding properties and pharmacokinetic studies in rats” (Eur J Med Chem, 2009) can be followed below.

A short description of data set [1]: Chemical stability in phosphate buffered saline assessed as compound degradation at 0.05 M at pH 7.4 at 5 to 40 degC after 14 days by HPLC. The data set is classed as physicochemical. To be noted: buffer, pH 7.4, 336 h.
The nature of data set [2]: Chemical stability in phosphate buffered saline assessed as compound degradation at 0.05 M at pH 7.4 at 25 degC after 1 hr by HPLC. The data set is classed as physicochemical. To be noted: buffer, pH 7.4, 1 h.
A short description of data set [3]: Chemical stability in phosphate buffered saline assessed as compound degradation at 0.05 M at pH 7.4 at 40 degC after 1 hr by HPLC. The data set is classed as physicochemical. To be noted: buffer, pH 7.4, 1 h.
Data set [4] in a line: Chemical stability in phosphate buffered saline assessed as compound degradation at 0.05 M at pH 7.4 at 5 degC after 1 hr by HPLC. The data set is classed as physicochemical. To be noted: buffer, pH 7.4, 1 h.
Data set [5] is described as follows: Half life in rat at 125 mg/kg/hr, iv after 2 hrs. It is filed as ADME, organism-based. Also on record: route intravenous. To be noted: in vivo.
Data set [6] can be described thus: Clearance in Rowet nu/nu rat plasma at […], iv after 5 mins to 6 hrs. It is filed as ADME, organism-based.
Data set [7] in a line: AUC (0 to 360 mins) in Rowet nu/nu rat plasma at […], iv after 5 mins to 6 hrs. Also on record: time < 6 hr, route intravenous. The data set is classed as ADME, organism-based.
The nature of data set [8]: AUC (0 to 360 mins) in Rowet nu/nu rat plasma at 15 mg/kg, iv after 5 mins to 6 hrs. It is filed as ADME, organism-based. Further details: time < 6 hr, dose 15 mg/kg, route intravenous.
Data set [9] is described as follows: Clearance in Rowet nu/nu rat plasma at 15 mg/kg, iv after 5 mins to 6 hrs. It is filed as ADME, organism-based. Further details: dose 15 mg/kg, route intravenous.

Take `O=C(O)CCCCCCCCCCC(=O)OC[C@H]1CC[C@@H](n2cnc3c(=O)[nH]cnc32)O1`: the Stability entry in [1] is on record as “Unstable”; in data set [2], “Stable”; in [3], “Stable”; in [4], “Stable”.
Regarding `O=c1[nH]cnc2c1ncn2[C@H]1CC[C@@H](CO)O1` [DIDANOSINE], the half-life in data set [5] is 1 h. In data set [6], this molecule gave a clearance of 134 mL/min/kg. In data set [7], this molecule gave an exposure AUC(0-t) at 6 h of 2100 ng·h/mL.
As to `O=C(O)CCCCC(=O)OC[C@H]1CC[C@@H](n2cnc3c(=O)[nH]cnc32)O1`, the Stability entry is on record as “Unstable” in data set [1], “Stable” in data set [2], “Stable” in data set [3] and “Stable” in data set [4].
In the case of `O=C(O)CCCCCCCC(=O)OC[C@H]1CC[C@@H](n2cnc3c(=O)[nH]cnc32)O1`, the Stability entry in data set [1] is given as “Unstable”; in [2] it was “Stable”; in [3] it was “Stable”; in data set [4], “Stable”. In data set [8], this molecule had an area under the curve AUC(0-t) at 6 h of 2680 ng·h/mL. The clearance in data set [9] is 107 mL/min/kg.
